Data as given in patent US5945440A, “Indolocarbazole imides and the use thereof” (priority 1992, dated 1999).
Read-outs that look alike come from different tables or passages of the source.

What was measured:
human tumour cells = test: colony test, human tumour cells in soft agar (tumour types in general); assay type: cell-based; conditions: certain tumour types
Description: For this test, human tumour cells are kept as solid tumour by passage on the nude mouse. For the test, an individual cell suspension is prepared and the cells then plated out in dishes containing soft agar. Under these conditions, the tumour cells multiply and form colonies.

[1] = molecular target: T1, MLC kinase (myosin light-chain kinase) (Gallus gallus, UniProt P11799); test: inhibition of MLC kinase, in vitro enzyme test (32P phosphate incorporation); assay type: biochemical, chicken (stomach); conditions: for ratio of IC50 C-kinase/IC50 MLC-kinase: selectivity factor calculated from the IC50 values; for MLC kinase inhibition, in words: potency and selectivity vs protein kinase C
T1 construct: MLC kinase was purified from chicken stomach; from tissue; host or cells: chicken stomach (gizzard smooth muscle)
T1 sequence (P11799 935-1906): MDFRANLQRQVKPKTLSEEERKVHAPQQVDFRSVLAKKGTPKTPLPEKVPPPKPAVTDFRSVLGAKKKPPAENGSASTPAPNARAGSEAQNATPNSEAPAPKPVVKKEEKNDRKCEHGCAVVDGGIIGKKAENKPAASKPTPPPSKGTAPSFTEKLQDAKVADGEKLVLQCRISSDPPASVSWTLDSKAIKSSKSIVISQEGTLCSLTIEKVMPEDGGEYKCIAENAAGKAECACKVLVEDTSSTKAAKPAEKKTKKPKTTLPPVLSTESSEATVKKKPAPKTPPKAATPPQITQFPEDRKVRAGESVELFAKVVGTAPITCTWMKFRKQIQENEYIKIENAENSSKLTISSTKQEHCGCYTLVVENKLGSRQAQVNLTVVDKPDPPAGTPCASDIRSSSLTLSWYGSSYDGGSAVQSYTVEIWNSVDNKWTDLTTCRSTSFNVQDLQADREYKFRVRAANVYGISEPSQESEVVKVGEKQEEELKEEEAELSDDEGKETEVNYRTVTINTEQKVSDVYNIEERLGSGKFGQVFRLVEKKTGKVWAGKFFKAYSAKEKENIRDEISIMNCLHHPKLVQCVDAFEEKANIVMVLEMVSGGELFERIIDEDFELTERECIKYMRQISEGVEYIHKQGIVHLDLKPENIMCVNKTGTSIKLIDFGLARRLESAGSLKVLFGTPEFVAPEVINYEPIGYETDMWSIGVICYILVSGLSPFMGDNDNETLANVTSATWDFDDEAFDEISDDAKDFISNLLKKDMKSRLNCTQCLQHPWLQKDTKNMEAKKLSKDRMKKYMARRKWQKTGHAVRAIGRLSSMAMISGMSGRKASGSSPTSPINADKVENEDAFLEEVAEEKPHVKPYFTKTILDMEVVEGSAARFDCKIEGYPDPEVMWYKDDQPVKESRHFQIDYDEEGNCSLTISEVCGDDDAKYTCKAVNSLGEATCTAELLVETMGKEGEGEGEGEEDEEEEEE
Description: Inhibition of the enzyme MLC kinase (EC 3.6.1.3; kinase of the light myosin chain; myosin light-chain kinase).
The inhibition of MLC kinase was measured in an in vitro enzyme test.
The reaction was initiated by the addition of 1 nM MLC kinase. After incubation for 20 minutes at 30° C., the reaction was stopped with TCA and the samples then filtered off. The phosphate incorporation took place by means of Cerenkov counting of the filter.

protein kinase C = test: inhibition of protein kinase C, enzyme test; assay type: biochemical; conditions: for IC50: read-out: inhibition of the protein kinases, C-kinase IC50
Description: In order to ascertain whether it is a question of a selective inhibition of MLC kinase, the compounds were also investigated in other enzyme tests for protein kinase, including tests for protein kinase C. The results from the PKC test are also given in the following Table I. Furthermore, the Table contains selectivity factors which were calculated by the determination of the ratios of the IC50 values.

HIV [2] = test: phorbol ester-induced HIV reactivation, viral protein p24 by ELISA; assay type: cell-based; conditions: Human immunodeficiency virus 1; U1 cells, PMA stimulation; average value ± SD; n = 3; read-out: inhibition of the HIV production IC50, p24 expression
Description: (§1) In the case of the establishment of this hypothesis, use was made of the promonocytic cell line U1.
(§2) Without stimulation, no formation of HIV can be measured in these cells but, after 15 minutes stimulation with the phorbol ester PMA, it results in a massive production of HIV.
(§3) Some of the PKC inhibitors according to the present invention were investigated in this model. As a measure for the HIV production, either with the help of an ELISA test there was determined the viral protein p24 or with the help of an indicator cell, there was measured the HIV-induced formation of syncytia (giant cells produced by the fusion of individual cells).

[3] = test system: promonocytic cell line U1; test: control experiments for cytotoxic action in the HIV model; assay type: cell-based
HIV [4] = test: HIV production in PMA-stimulated promonocytic U1 cells (both methods); assay type: cell-based
Description: as §1, §2, §3

HIV [5] = test: phorbol ester-induced HIV reactivation, HIV-induced syncytia formation with indicator cell; assay type: cell-based; conditions: Human immunodeficiency virus 1; U1 cells, PMA stimulation; average value; n = 2; read-out: inhibition of the HIV production IC50, syncytia formation
Description: as §1, §2, §3

[6] = test system: narcotised, spontaneously hypertensive rat (SHR); test: anti-hypertensive action in narcotised spontaneously hypertensive rats, i.v.; assay type: in vivo; conditions: for reduction of the average arterial blood pressure / reduction of the heart frequency: 60 minutes after administration, average ± SD; for anti-hypertensive action, in words / influencing of the heart frequency, in words: i.v.
Description: As test model, there was used the narcotised, spontaneously hypertensive rat (SHR). After intravenous administration of the inhibitor of MLC kinase, in each case 60 minutes after the administration of the compound, there were found the reductions of the average arterial blood pressure set out in the following Table 2.

[7] = 1 nM MLC kinase, 250 μM ATP, pH 7.2, 20 minutes at 30° C., read-out: inhibition of the protein kinases, MLC-kinase IC50

CN(C)CC(O)Cn1c2ccccc2c2c3c(c4c5ccccc5n(C)c4c21)C(=O)NC3=O (racemic) [Example 10, (±)-12-(3-Dimethylamino-2-hydroxy-1-propyl)-6,7,12,13-tetrahydro-13-methyl-5,7-dioxo-5H-indolo[2,3-a]pyrrolo-[3,4-c]carbazole]
inhibition of tumour cell growth, in words (human tumour cells): the growth of the tumour cells can be inhibited depending upon the concentration
ratio of IC50 C-kinase/IC50 MLC-kinase [1]: 0.2
IC50 (protein kinase C): 21 nM

COc1ccc2c(c1)c1c3c(c4c5ccccc5n(C)c4c1n2CCC#N)C(=O)NC3=O [Example 1, 13-(2-Cyanoethyl)-6,7,12,13-tetrahydro-3-methoxy-12-methyl-5,7-dioxo-5H-indolo[2,3-a]pyrrolo[3,4-c]-carbazole]
IC50 [1, 7]: 200 nM
ratio of IC50 C-kinase/IC50 MLC-kinase [1]: 0.008
protein kinase C inhibition, in words (protein kinase C; potency and selectivity vs MLC kinase): potent and selective protein kinase C inhibitor
IC50 (protein kinase C): 1.5 nM
IC50 (HIV [2]): 118 ± 98 nM
cytotoxic action as cause of the anti-HIV action, in words [3]: the anti-HIV action did not come about due to a cytotoxic action
anti-HIV action, in words (HIV [4]; both test methods): an anti-HIV action could be demonstrated
IC50 (HIV [5]): 28 nM

NC(=O)CCn1c2ccccc2c2c3c(c4c5ccccc5[nH]c4c21)C(=O)NC3=O [Example 5, 12-(2-Carbamoylethyl)-6,7,12,13-tetrahydro-5,7-dioxo-5H-indolo[2,3-a]pyrrolo[3,4-c]carbazole]
IC50 [1, 7]: 3.7 nM
MLC kinase inhibition, in words [1]: potent and selective inhibitors of MLC kinase
ratio of IC50 C-kinase/IC50 MLC-kinase [1]: 24
IC50 (protein kinase C): 87 nM
reduction of the average arterial blood pressure ([6]; 1 mg/kg i.v.): 15 ± 5%
reduction of the heart frequency ([6]; 1 mg/kg i.v.): 3 ± 3%
reduction of the average arterial blood pressure ([6]; 3 mg/kg i.v.): 23 ± 3%
reduction of the heart frequency ([6]; 3 mg/kg i.v.): 7 ± 4%
reduction of the average arterial blood pressure ([6]; 10 mg/kg i.v.): 40 ± 8%
reduction of the heart frequency ([6]; 10 mg/kg i.v.): 4 ± 3%
anti-hypertensive action, in words [6]: dosage-dependent anti-hypertensive action could be demonstrated
influencing of the heart frequency, in words [6]: scarcely observable

Cn1c2ccccc2c2c3c(c4c5ccccc5[nH]c4c21)C(=O)NC3=O [Example 7c, 6,7,12,13-tetrahydro-12-methyl-5,7-dioxo-5H-indolo[2,3-a]pyrrolo[3,4-c]carbazole]
IC50 [1, 7]: 23 nM
MLC kinase inhibition, in words [1]: potent and selective inhibitors of MLC kinase
ratio of IC50 C-kinase/IC50 MLC-kinase [1]: > 435
IC50 (protein kinase C): > 10000 nM
reduction of the average arterial blood pressure ([6]; 3 mg/kg i.v.): 10 ± 7%
reduction of the heart frequency ([6]; 3 mg/kg i.v.): 7 ± 3%
reduction of the average arterial blood pressure ([6]; 10 mg/kg i.v.): 23 ± 2%
reduction of the heart frequency ([6]; 10 mg/kg i.v.): 8 ± 2%
anti-hypertensive action, in words [6]: dosage-dependent anti-hypertensive action could be demonstrated
influencing of the heart frequency, in words [6]: scarcely observable

COc1ccc2[nH]c3c(c4c(c5c6ccccc6n(C)c35)C(=O)NC4=O)c2c1 [Example 7d, 6,7,12,13-tetrahydro-3-methoxy-12-methyl-5,7-dioxo-5H-indolo[2,3-a]pyrrolo[3,4-c]carbazole]
IC50 [1, 7]: 8.4 nM
ratio of IC50 C-kinase/IC50 MLC-kinase [1]: 3.0
IC50 (protein kinase C): 25 nM

CC(C)N(CCCn1c2ccccc2c2c3c(c4c5ccccc5[nH]c4c21)C(=O)NC3=O)C(C)C [Example 7g, 12-(3-diisopropylaminopropyl)-6,7,12,13-tetrahydro-5,7-dioxo-5H-indolo[2,3-a]pyrrolo[3,4-c]carbazole]
inhibition of tumour cell growth, in words (human tumour cells): the growth of the tumour cells can be inhibited depending upon the concentration
IC50 [1, 7]: 110 nM
ratio of IC50 C-kinase/IC50 MLC-kinase [1]: 0.4
IC50 (protein kinase C): 42 nM

O=C1NC(=O)c2c1c1c3ccccc3[nH]c1c1c2c2ccccc2n1CC(O)CO (stereo not shown) [Example 8, 12-(2,3-Dihydroxy-1-propyl)-6,7,12,13-tetrahydro-5,7-dioxo-5H-indolo[2,3-a]pyrrolo[3,4-c]carbazole]
IC50 [1, 7]: 5.2 nM
ratio of IC50 C-kinase/IC50 MLC-kinase [1]: 11.3
IC50 (protein kinase C): 59 nM

O=C1NC(=O)c2c1c1c3ccccc3[nH]c1c1[nH]c3ccccc3c21 [Example 11a, 6,7,12,13-tetrahydro-5,7-dioxo-5H-indolo[2,3-a]pyrrolo[3,4-c]carbazole]
IC50 [1]: 420 nM
ratio of IC50 C-kinase/IC50 MLC-kinase [1]: 4.5
IC50 (protein kinase C): 1900 nM

COc1ccc2[nH]c3c4[nH]c5ccccc5c4c4c(c3c2c1)C(=O)NC4=O [Example 11b, 6,7,12,13-tetrahydro-3-methoxy-5,7-dioxo-5H-indolo[2,3-a]pyrrolo[3,4-c]carbazole]
IC50 [1, 7]: 60 nM
ratio of IC50 C-kinase/IC50 MLC-kinase [1]: 4.7
IC50 (protein kinase C): 280 nM

O=C1NC(=O)c2c1c1c3ccccc3[nH]c1c1[nH]c3cc(Cl)ccc3c21 [Example 11c, 2-chloro-6,7,12,13-tetrahydro-5,7-dioxo-5H-indolo[2,3-a]pyrrolo[3,4-c]carbazole]
IC50 [1, 7]: 86 nM
MLC kinase inhibition, in words [1]: potent and selective inhibitors of MLC kinase
ratio of IC50 C-kinase/IC50 MLC-kinase [1]: 47
IC50 (protein kinase C): 4000 nM

COc1ccc2[nH]c3c4[nH]c5ccc(OC)cc5c4c4c(c3c2c1)C(=O)NC4=O [Example 11d, 6,7,12,13-tetrahydro-3,9-dimethoxy-5,7-dioxo-5H-indolo[2,3-a]pyrrolo[3,4-c]carbazole]
IC50 [1, 7]: 21 nM
MLC kinase inhibition, in words [1]: potent and selective inhibitors of MLC kinase
ratio of IC50 C-kinase/IC50 MLC-kinase [1]: > 476
IC50 (protein kinase C): > 10000 nM
reduction of the average arterial blood pressure ([6]; 3 mg/kg i.v.): 16 ± 3%
reduction of the heart frequency ([6]; 3 mg/kg i.v.): 6 ± 2%
reduction of the average arterial blood pressure ([6]; 10 mg/kg i.v.): 35 ± 5%
reduction of the heart frequency ([6]; 10 mg/kg i.v.): 10 ± 3%
anti-hypertensive action, in words [6]: dosage-dependent anti-hypertensive action could be demonstrated
influencing of the heart frequency, in words [6]: scarcely observable

Cc1ccc2[nH]c3c4[nH]c5ccc(C)cc5c4c4c(c3c2c1)C(=O)NC4=O [Example 11e, 6,7,12,13-tetrahydro-3,9-dimethyl-5,7-dioxo-5H-indolo[2,3-a]pyrrolo[3,4-c]carbazole]
IC50 [1, 7]: 600 nM
ratio of IC50 C-kinase/IC50 MLC-kinase [1]: > 17
IC50 (protein kinase C): > 10000 nM

O=C1NC(=O)c2c1c1c3cc(Br)ccc3[nH]c1c1[nH]c3ccc(Br)cc3c21 [Example 11g, 3,9-dibromo-6,7,12,13-tetrahydro-5,7-dioxo-5H-indolo[2,3-a]pyrrolo[3,4-c]carbazole]
IC50 [1, 7]: 370 nM
ratio of IC50 C-kinase/IC50 MLC-kinase [1]: 12
IC50 (protein kinase C): 4600 nM

CC1CNCCN1S(=O)(=O)c1cccc2cnccc12 (stereo not shown) [Example H-7, reference compound]
suppression of HIV production, in words (HIV [4]; 1 hour before PMA stimulation and 48 hours after): the production of HIV can be completely suppressed
